In patent publication US12071414B2, “Apelin receptor agonists and methods of use thereof” (Sanford Burnham Prebys Medical Discovery Institute, priority 2015, dated 2024):

target: T1, human apelin receptor (APJ, AGTRL-one, APLNR) (Homo sapiens, UniProt P35414); experiment: cell-based cAMP TR-FRET assay of apelin receptor activation; conditions: CHO cells expressing human APJ, forskolin-stimulated cAMP, 0.5 h incubation, 50% of control (apelin-13, 1 nM) response; read-out: Potency Category (EC50)
T1 construct: host or cells: Chinese hamster ovary cells, stably integrated receptor
T1 sequence (P35414 1-380): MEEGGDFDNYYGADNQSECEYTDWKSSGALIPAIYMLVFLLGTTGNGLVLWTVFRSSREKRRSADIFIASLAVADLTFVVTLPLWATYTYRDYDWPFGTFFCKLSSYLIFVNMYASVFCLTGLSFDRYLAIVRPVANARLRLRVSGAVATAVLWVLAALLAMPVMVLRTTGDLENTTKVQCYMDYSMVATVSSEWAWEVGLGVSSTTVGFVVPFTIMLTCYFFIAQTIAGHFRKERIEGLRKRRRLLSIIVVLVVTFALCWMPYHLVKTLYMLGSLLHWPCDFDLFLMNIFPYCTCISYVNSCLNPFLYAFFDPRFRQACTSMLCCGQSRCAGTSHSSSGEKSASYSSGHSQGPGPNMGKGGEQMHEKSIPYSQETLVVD
Method: The assays disclosed herein were performed using cell lines from DiscoveX, Inc. Biological activity was determined to the cell—based assay. This assay detects activation of the receptor by reporting on intracellular cyclic adenosine monophosphate (cAMP) level. Chinese hamster ovary cells engineered to express the stably integrated human apelin receptor (APJ, AGTRL—one, APLNR), pleaded into the wells of the microtiter plate. Cells were stimulated with […] to increase intracellular cyclic AMP. Immediately following, compounds were added to the range of final concentrations 0.0-100 μM, in DMSO (not to exceed a final DMSO concentration greater than 1% ν/ν), and allowed to incubate with the cells for 0.5 h. At the end of the incubation, cells were lysed to stop APJ signaling and cAMP was quantified using a commercially available competitive immunoassay kit that applies homogenous time—resolved florescence energy transfer (TR—FRET). The assay is based on the competition between a europium (Eu) chelate—labeled cAMP donor tracer and cellular cAMP for binding sites on a cAMP—specific monoclonal antibody labeled with an acceptor fluorophore. When antibodies are bound to the cAMP tracer light emissions at 320 nm stimulate the energy transfer from the donor to the acceptor, which in turn emits light at 665 nm. In the presence of competitive unlabeled cAMP (derived from the activity of the receptor or forskolin-stimulated production of cAMP), the labelled cAMP tracer is dissociated from the cAMP antibody, resulting in a loss of FRET signal. The amount of light emitted by the FRET is inversely proportional to the cAMP generated by the cell/receptor system. Potency and efficacy at APJ are reported in reference to the canonical APJ receptor agonist apelin—13 when tested at 1 nM. […] Compound efficacy (% response) is reported as a percentage of the maximal apein-13 response at 1 nM (control). Potencies were calculated by fitting a […] logistic curve to concentration response consisting of at least 10 discrete data points spanning effective range of the compounds in the cell-based assay that measures cAMP. […] Category B is 200-500 nM; Category C is 100-200 nM; Category D is 50-100 nM; and Category E is <50 nM.

| EC50 | SMILES |
| --- | --- |
| 200 to 500 nM | COCCNS(=O)(=O)c1ccc(C(Oc2ccc(C#N)cc2)C(=O)Nc2nc3cc(OC)c(OC)cc3s2)cc1 (stereo not drawn) |
| 200 to 500 nM | COc1cc2nc(NC(=O)C(Oc3ccc(C#N)cc3)c3cccc(S(=O)(=O)c4ccc(F)cc4)c3)sc2cc1OC (stereo not drawn) |
| > 500 nM | COc1ccc(S(=O)(=O)c2cccc(C(Oc3ccc(C#N)cc3)C(=O)Nc3nc4cc(OC)c(OC)cc4s3)c2)cc1 (stereo not drawn) |
| 200 to 500 nM | CCS(=O)(=O)c1ccc(C(Oc2ccc(C(C)C)cc2)C(=O)Nc2nc3cc(OC)c(OC)cc3s2)cc1 (stereo not drawn) |
| > 500 nM | CCS(=O)(=O)c1ccc(CC(=O)Nc2nc3cc(OC)c(OC)cc3o2)cc1 |
| 200 to 500 nM | CCS(=O)(=O)c1ccc(C(Oc2ccc(C#N)cc2)C(=O)Nc2nc3cc(OC)c(C)cc3s2)cc1 (stereo not drawn) |
| > 500 nM | CCS(=O)(=O)c1ccc(CC(=O)Nc2nc3cc4c(cc3s2)OCO4)cc1 |
| 100 to 200 nM | COc1cc2nc(NC(=O)C(Oc3ccc(C#N)cc3)c3ccc(C(=O)NCCN4CCOCC4)cc3)sc2cc1OC (stereo not drawn) |
| < 50 nM | CCCCS(=O)(=O)c1ccc(C(Oc2ccc(C#N)cc2)C(=O)Nc2nc3cc(OC)c(OC)cc3s2)cc1 (stereo not drawn) |
| < 50 nM | COc1cc2nc(NC(=O)C(Oc3ccc(C#N)cc3)c3ccccc3S(=O)(=O)Cc3ccccc3)sc2cc1OC (stereo not drawn) |
| > 500 nM | CCS(=O)(=O)c1ccc(C(Oc2ccc(C#N)cc2)C(=O)Nc2nc3cc(OC)c(OC)cc3n2C)cc1 (stereo not drawn) |
| > 500 nM | COc1cc2nc(NC(=O)Cc3cccc(S(=O)(=O)c4ccc(F)cc4)c3)sc2cc1OC |
| > 500 nM | CCN(CC)c1ccc2sc(NC(=O)Cc3ccc(S(=O)(=O)CC)cc3)nc2c1 |
| < 50 nM | CCOc1ccc(C(Oc2ccc(C#N)cc2)C(=O)Nc2nc3cc(OC)c(OC)cc3s2)cc1 (stereo not drawn) |
| > 500 nM | CCS(=O)(=O)c1ccc(C(OCCOC)C(=O)Nc2nc3cc(OC)c(OC)cc3s2)cc1 (stereo not drawn) |
| > 500 nM | CCS(=O)(=O)c1ccc(C(Oc2ccc(C#N)cc2)C(=O)Nc2nc3cc(F)c(OC)cc3s2)cc1 (stereo not drawn) |
| > 500 nM | COc1cc2nc(NC(=O)Cc3ccccc3C(=O)N(C)C)sc2cc1OC |
| > 500 nM | COc1cc2nc(NC(=O)C(Oc3ccc(C#N)cc3)c3ccc(C(=O)O)cc3)sc2cc1OC (stereo not drawn) |
| > 500 nM | CCS(=O)(=O)c1ccc(C(OCC2CCCCC2)C(=O)Nc2nc3cc(OC)c(OC)cc3s2)cc1 (stereo not drawn) |
| > 500 nM | COCCS(=O)(=O)c1ccc(CC(=O)Nc2nc3cc(OC)c(OC)cc3s2)cc1 |
| > 500 nM | COc1ccc(OC(C(=O)Nc2nc3cc(OC)c(OC)cc3s2)c2ccccc2S(=O)(=O)c2ccc(OC)cc2)cc1 (stereo not drawn) |
| 200 to 500 nM | CCS(=O)(=O)c1ccc(C(Oc2ccc(C3CCCC3)cc2)C(=O)Nc2nc3cc(OC)c(OC)cc3s2)cc1 (stereo not drawn) |
| 100 to 200 nM | C#Cc1ccc(OC(C(=O)Nc2nc3cc(OC)c(OC)cc3s2)c2ccc(S(=O)(=O)CC)cc2)cc1 (stereo not drawn) |

| EC50 | SMILES |
| --- | --- |
| 100 to 200 nM | COc1cc2nc(NC(=O)C(Oc3ccc(C#N)cc3)c3ccc(S(=O)(=O)c4ccc(F)cc4)cc3)sc2cc1OC (stereo not drawn) |
| > 500 nM | CCC(C(=O)Nc1nc2cc(OC)c(OC)cc2s1)c1ccc(S(=O)(=O)CC)cc1 (stereo not drawn) |
| < 50 nM | COc1cc2nc(NC(=O)C(Oc3ccc(C#N)cc3)c3ccc(C(=O)N4CCN(C)CC4)cc3)oc2cc1OC (stereo not drawn) |
| > 500 nM | CCS(=O)(=O)c1ccc(C(Oc2ccc(C#N)cc2)C(=O)Nc2nc3cc(OCC4CC4)c(OC)cc3s2)cc1 (stereo not drawn) |
| > 500 nM | CCS(=O)(=O)c1ccc(C(Cc2ccccc2)C(=O)Nc2nc3cc(OC)c(OC)cc3s2)cc1 (stereo not drawn) |
| > 500 nM | COc1cc2nc(NC(=O)Cc3cccc(C(=O)N(C)C)c3)sc2cc1OC |
| > 500 nM | COc1ccc(OC(C(=O)Nc2nc3cc(OC)c(OC)cc3s2)c2ccccc2S(=O)(=O)c2ccc(F)cc2)cc1 (stereo not drawn) |
| < 50 nM | COc1cc2nc(NC(=O)C(Oc3ccc(C#N)cc3)c3ccc(S(=O)(=O)C(C)C)cc3)sc2cc1OC (stereo not drawn) |
| 50 to 100 nM | CCS(=O)(=O)c1ccc(C(Oc2ccc(C#N)cc2)C(=O)Nc2nc3ccc(OC)c(OC)c3s2)cc1 (stereo not drawn) |
| 200 to 500 nM | CCCOc1ccc(OC(C(=O)Nc2nc3cc(OC)c(OC)cc3s2)c2ccc(S(=O)(=O)CC)cc2)cc1 (stereo not drawn) |
| 200 to 500 nM | COc1cc2nc(NC(=O)C(Oc3ccc(C#N)cc3)c3ccc(C(=O)N4CCNCC4)cc3)sc2cc1OC (stereo not drawn) |
| > 500 nM | CCS(=O)(=O)c1ccc(C(Oc2ccccc2)C(=O)Nc2nc3cc(OC)c(OC)cc3s2)cc1 (stereo not drawn) |
| 50 to 100 nM | COc1cc2nc(NC(=O)C(Oc3ccc(OCCN4CCCC4)cc3)c3ccc(C#N)cc3)sc2cc1OC (stereo not drawn) |
| 100 to 200 nM | COc1cc2nc(NC(=O)C(Oc3ccc(C#N)cc3)c3ccccc3S(=O)(=O)C(C)C)sc2cc1OC (stereo not drawn) |
| < 50 nM | CCOc1cc2nc(NC(=O)C(Oc3ccc(C#N)cc3)c3ccc(S(=O)(=O)CC)cc3)sc2cc1OC (stereo not drawn) |
| 100 to 200 nM | COC(=O)c1ccc(C(Oc2ccc(C#N)cc2)C(=O)Nc2nc3cc(OC)c(OC)cc3s2)cc1 (stereo not drawn) |
| > 500 nM | CCS(=O)(=O)c1ccc(C(Oc2ccc(OC)cc2)C(=O)Nc2nc3ccc4c(c3s2)OCO4)cc1 (stereo not drawn) |
| 100 to 200 nM | COc1cc2nc(NC(=O)C(Oc3ccc(C#N)cc3)c3ccccc3)sc2cc1OC (stereo not drawn) |
| > 500 nM | CCS(=O)(=O)c1ccc(C(Oc2cccc(Cl)c2)C(=O)Nc2nc3cc(OC)c(OC)cc3s2)cc1 (stereo not drawn) |
| < 50 nM | CCS(=O)(=O)c1ccc(C(Oc2ccc([N+](=O)[O-])cc2)C(=O)Nc2nc3cc(OC)c(OC)cc3s2)cc1 (stereo not drawn) |
| 200 to 500 nM | COc1cc2nc(NC(=O)C(Oc3ccc(C#N)cc3)c3ccc(OCCN4CCCCC4)cc3)sc2cc1OC (stereo not drawn) |
| > 500 nM | CCS(=O)(=O)c1ccc(C(Oc2ccc(C#N)cc2)C(=O)Nc2nc3ccc(OCCN4CCOCC4)cc3s2)cc1 (stereo not drawn) |
| < 50 nM | COc1cc2nc(NC(=O)C(Oc3ccc(C(=O)N4CCNCC4)cc3)c3ccc(C#N)cc3)sc2cc1OC (stereo not drawn) |

| EC50 | SMILES |
| --- | --- |
| > 500 nM | CCS(=O)(=O)c1ccc(C(OCC(C)C)C(=O)Nc2nc3cc(OC)c(OC)cc3s2)cc1 (stereo not drawn) |
| 200 to 500 nM | CCCCS(=O)(=O)c1ccccc1C(Oc1ccc(C#N)cc1)C(=O)Nc1nc2cc(OC)c(OC)cc2s1 (stereo not drawn) |
| 200 to 500 nM | CCS(=O)(=O)c1ccc(C(Oc2ccc(C)cc2)C(=O)Nc2nc3cc(OC)c(OC)cc3s2)cc1 (stereo not drawn) |
| < 50 nM | COc1cc2nc(NC(=O)C(Oc3ccc(C#N)cc3)c3ccc(S(=O)(=O)N(C)C)cc3)sc2cc1OC (stereo not drawn) |
| 200 to 500 nM | COc1cc2nc(NC(=O)C(Oc3ccc(C#N)cc3)c3cccc(S(=O)(=O)c4ccc(Cl)cc4)c3)sc2cc1OC (stereo not drawn) |
| > 500 nM | COc1cc2nc(NC(=O)C(Oc3ccc(C#N)cc3)c3ccc(-c4nnn[nH]4)cc3)sc2cc1OC (stereo not drawn) |
| > 500 nM | CCS(=O)(=O)c1ccc(C(Nc2ccccc2C)C(=O)Nc2nc3cc(OC)c(OC)cc3s2)cc1 (stereo not drawn) |
| 200 to 500 nM | COc1cc2nc(NC(=O)C(Oc3ccc(C#N)cc3)c3ccc(C(=O)N4CCN(C)CC4)cc3)sc2cc1OC (stereo not drawn) |
| > 500 nM | COc1cc2nc(NC(=O)Cc3ccc(C(=O)O)cc3)sc2cc1OC |
| > 500 nM | CCS(=O)(=O)c1ccc(C(Oc2ccc(OC)cc2)C(=O)Nc2nc3c(OC)ccc(OC)c3s2)cc1 (stereo not drawn) |
| > 500 nM | CCS(=O)(=O)c1ccc(C(OCCC(C)C)C(=O)Nc2nc3cc(OC)c(OC)cc3s2)cc1 (stereo not drawn) |
| > 500 nM | CCCCc1ccc(OC(C(=O)Nc2nc3cc(OC)c(OC)cc3s2)c2ccc(S(=O)(=O)CC)cc2)cc1 (stereo not drawn) |
| 100 to 200 nM | COc1cc2nc(NC(=O)C(Oc3ccc(C#N)cc3)c3ccc(Cl)cc3)sc2cc1OC (stereo not drawn) |
| > 500 nM | COc1cc2nc(NC(=O)Cc3ccc(S(=O)(=O)CC4CC4)cc3)sc2cc1OC |
| > 500 nM | CCS(=O)(=O)c1ccc(CC(=O)Nc2nc3ccc(N4CCN(C)CC4)cc3s2)cc1 |
| > 500 nM | CCS(=O)(=O)c1ccc(C(Oc2ccc(C#N)cc2)C(=O)Nc2nc3ccc4c(c3s2)OCO4)cc1 (stereo not drawn) |
| > 500 nM | CCS(=O)(=O)c1cccc(CC(=O)Nc2nc3cc(OC)c(OC)cc3s2)c1 |
| > 500 nM | CCS(=O)(=O)c1ccc(C(OCCc2ccccc2)C(=O)Nc2nc3cc(OC)c(OC)cc3s2)cc1 (stereo not drawn) |
| > 500 nM | CCS(=O)(=O)c1ccc(C(OCC=C(C)C)C(=O)Nc2nc3cc(OC)c(OC)cc3s2)cc1 (stereo not drawn) |
| > 500 nM | CCS(=O)(=O)c1ccc(C(Oc2ccc(OC)cc2)C(=O)Nc2nc3ccc4c(c3s2)OCCO4)cc1 (stereo not drawn) |
| > 500 nM | CCS(=O)(=O)c1ccc(C(NC2CCCC2)C(=O)Nc2nc3cc(OC)c(OC)cc3s2)cc1 (stereo not drawn) |
| > 500 nM | COc1cc2nc(NC(=O)Cc3ccc(C(=O)N(C)C)cc3)sc2cc1OC |
| < 50 nM | CCS(=O)(=O)c1ccc(C(Oc2ccc(C#N)cc2Cl)C(=O)Nc2nc3cc(OC)c(OC)cc3s2)cc1 (stereo not drawn) |
